Data set [1] has as its target Ion channel NompC (Danio rerio, UniProt Q7T1G6). Description: Fluorescence counterscreen assay for TRPML3 agonists: dose response cell-based high-throughput screening assay to identify agonists of the transient receptor potential channel N1 (TRPN1). [Related pubchem assays: 1526, 1424, 1448 ]. The format is functional. A general note: The purpose of a counterscreen is to sort out artefacts and off-target activity.

For data set [2], the target named is Mucolipin-3 (Homo sapiens, UniProt Q8TDD5). Description: Dose response cell-based high-throughput screening assay for agonists of the transient receptor potential channel ML3 (TRPML3). [Related pubchem assays: 1526, 1424, 1448 ]. The format is functional.
Chain of Mucolipin-3 (Q8TDD5 whole entry): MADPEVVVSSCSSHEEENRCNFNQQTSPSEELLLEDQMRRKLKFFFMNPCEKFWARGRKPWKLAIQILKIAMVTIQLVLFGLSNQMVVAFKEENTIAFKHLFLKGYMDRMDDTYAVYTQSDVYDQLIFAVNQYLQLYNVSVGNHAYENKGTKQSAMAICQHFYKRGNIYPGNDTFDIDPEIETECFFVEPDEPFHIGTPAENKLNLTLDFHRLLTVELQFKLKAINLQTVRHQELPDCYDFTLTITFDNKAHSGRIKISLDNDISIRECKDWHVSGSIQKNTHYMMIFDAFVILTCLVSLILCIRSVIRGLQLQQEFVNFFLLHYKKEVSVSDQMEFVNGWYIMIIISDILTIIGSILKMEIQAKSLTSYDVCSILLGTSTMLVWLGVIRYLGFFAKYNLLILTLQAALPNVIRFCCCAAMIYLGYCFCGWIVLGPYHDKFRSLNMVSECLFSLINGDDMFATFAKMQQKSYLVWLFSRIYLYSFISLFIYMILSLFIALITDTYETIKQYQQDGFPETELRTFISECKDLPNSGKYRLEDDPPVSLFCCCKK
Data set [3] deals with Mothers against decapentaplegic homolog 3 (Homo sapiens, UniProt P84022). Description: SMAD3 transcription factor inhibitors, dose response (AID 715). The class given is functional.
Chain of Mothers against decapentaplegic homolog 3 (P84022 whole entry): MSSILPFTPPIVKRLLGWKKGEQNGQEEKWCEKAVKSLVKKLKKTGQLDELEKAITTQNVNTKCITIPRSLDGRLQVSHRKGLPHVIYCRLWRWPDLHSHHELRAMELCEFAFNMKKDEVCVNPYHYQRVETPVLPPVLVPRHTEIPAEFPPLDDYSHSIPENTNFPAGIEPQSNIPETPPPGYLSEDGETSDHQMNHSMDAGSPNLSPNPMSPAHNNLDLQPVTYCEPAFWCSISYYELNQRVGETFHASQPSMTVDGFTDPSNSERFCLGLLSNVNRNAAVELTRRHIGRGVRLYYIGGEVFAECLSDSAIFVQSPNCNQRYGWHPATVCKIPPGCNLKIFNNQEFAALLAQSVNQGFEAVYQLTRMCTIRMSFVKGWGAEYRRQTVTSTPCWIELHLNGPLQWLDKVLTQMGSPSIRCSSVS
For data set [4], the target named is Cytochrome P450 2D6 (Homo sapiens, UniProt P10635).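 Also: CYP2D6 member of a cytochrome P450 panel assay.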
Chain of Cytochrome P450 2D6 (P10635 whole entry): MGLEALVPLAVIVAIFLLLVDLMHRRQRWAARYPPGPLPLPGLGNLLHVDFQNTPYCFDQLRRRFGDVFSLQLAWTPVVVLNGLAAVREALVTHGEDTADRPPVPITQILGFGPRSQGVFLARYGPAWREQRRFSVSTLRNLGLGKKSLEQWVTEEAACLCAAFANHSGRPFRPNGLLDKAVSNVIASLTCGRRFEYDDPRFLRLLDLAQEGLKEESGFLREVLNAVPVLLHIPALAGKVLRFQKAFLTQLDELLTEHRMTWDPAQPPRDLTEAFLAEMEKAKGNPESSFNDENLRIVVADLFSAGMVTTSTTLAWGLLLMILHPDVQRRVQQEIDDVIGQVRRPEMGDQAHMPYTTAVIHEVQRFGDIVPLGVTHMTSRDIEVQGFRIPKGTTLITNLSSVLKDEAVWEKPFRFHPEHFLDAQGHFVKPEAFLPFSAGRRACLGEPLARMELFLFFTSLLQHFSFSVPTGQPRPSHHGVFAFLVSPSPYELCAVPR
Data set [5] deals with Cytochrome P450 2C19 (Homo sapiens, UniProt P33261). Description: Cytochrome panel assay with activity outcomes. Panel member name: p450-cyp2c19 Compounds with AC50 equal or less than 10 uM are considered active. The class given is functional.
Data set [6] can be described thus: cytotoxicity toward NIH3T3 fibroblasts, dose response, counter-screen, cell-based, ATP luminescence, mouse fibroblasts (AID 2010).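 Also: cells exposed to compound for about 90 hours before reading.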 The class given is functional.
Data set [7] can be described thus: Vero cell cytotoxicity, dose response, cytotoxicity control for Vif-APOBEC3G degradation inhibitor project, Vero cells (AID 1117358). The class given is functional. To be noted: Human immunodeficiency virus 1, Vero.
Data set [8] can be described thus: inhibitors of intracellular T. cruzi replication, confirmation, NIH3T3 host cells, beta-gal luminescence (AID 2044).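 Also: intracellular parasites grown in NIH/3T3 mouse fibroblasts as host cells; luminescent beta-galactosidase reporter signal from transgenic T. cruzi replicating inside host cells; inhibitors lower the luminescence signal.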 The class given is functional, cell-based.
Data set [9] has as its target NADPH oxidase 1 (Homo sapiens, UniProt Q9Y5S8). The format is functional, cell-based.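 Also: Cell-based assay with luminescence read-out, IC50 derived from inhibitor dose-response curves; intracellular ROS from endogenous NOX1 in intact HT29 colon cancer cells; potency of inhibitors that lower the ROS luminescence signal.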
Data set [10] can be described thus: growth suppression of beta-catenin-knockout colon cells, dose response, cell-based, HCT116, human colon tumor (AID 1045).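 Also: HCT116 colon tumor cells with beta catenin knocked out; cells exposed to compound for 60 hours.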 The format is functional.
Data set [11] can be described thus: growth suppression of PTEN-null colon cells, dose response, cell-based, HCT116 PTEN knockout (AID 1047).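 Also: HCT116 colon tumor cells with PTEN knocked out; cells exposed to compound for 60 hours before readout; potency for loss of cell viability measured by luminescence.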 The format is functional.
Data set [12] deals with T1, Estrogen receptor (Homo sapiens, UniProt P03372).
T1 sequence (P03372 whole entry): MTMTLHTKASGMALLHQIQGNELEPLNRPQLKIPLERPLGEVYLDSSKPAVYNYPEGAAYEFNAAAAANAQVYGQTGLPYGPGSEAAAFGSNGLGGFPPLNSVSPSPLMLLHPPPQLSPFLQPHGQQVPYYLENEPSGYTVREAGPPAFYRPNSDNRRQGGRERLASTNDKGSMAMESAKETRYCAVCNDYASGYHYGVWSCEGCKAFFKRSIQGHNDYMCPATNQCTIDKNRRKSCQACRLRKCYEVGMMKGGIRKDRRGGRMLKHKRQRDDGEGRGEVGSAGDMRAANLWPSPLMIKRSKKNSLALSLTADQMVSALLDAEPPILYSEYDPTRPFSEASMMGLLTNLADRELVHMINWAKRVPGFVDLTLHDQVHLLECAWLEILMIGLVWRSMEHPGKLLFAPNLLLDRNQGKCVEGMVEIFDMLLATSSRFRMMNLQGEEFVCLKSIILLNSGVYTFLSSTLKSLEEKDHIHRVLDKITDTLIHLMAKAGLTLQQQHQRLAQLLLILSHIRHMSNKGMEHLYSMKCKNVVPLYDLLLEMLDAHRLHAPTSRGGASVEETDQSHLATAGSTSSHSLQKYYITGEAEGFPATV
Description: potentiators of ERα–SRC-1 coactivator binding, dose response, biochemical, TR-FRET, ERα LBD (AID 737). On the technique in general: Time-resolved FRET reads energy transfer from a long-lived donor to a nearby acceptor.

The target of data set [13] is Large T antigen (Simian virus 40, UniProt P03070). The class given is functional, Betapolyomavirus macacae.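 Also: Confirmatory-stage PubChem screen for compounds that inhibit SV40 T antigen.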
Chain of Large T antigen (P03070 whole entry): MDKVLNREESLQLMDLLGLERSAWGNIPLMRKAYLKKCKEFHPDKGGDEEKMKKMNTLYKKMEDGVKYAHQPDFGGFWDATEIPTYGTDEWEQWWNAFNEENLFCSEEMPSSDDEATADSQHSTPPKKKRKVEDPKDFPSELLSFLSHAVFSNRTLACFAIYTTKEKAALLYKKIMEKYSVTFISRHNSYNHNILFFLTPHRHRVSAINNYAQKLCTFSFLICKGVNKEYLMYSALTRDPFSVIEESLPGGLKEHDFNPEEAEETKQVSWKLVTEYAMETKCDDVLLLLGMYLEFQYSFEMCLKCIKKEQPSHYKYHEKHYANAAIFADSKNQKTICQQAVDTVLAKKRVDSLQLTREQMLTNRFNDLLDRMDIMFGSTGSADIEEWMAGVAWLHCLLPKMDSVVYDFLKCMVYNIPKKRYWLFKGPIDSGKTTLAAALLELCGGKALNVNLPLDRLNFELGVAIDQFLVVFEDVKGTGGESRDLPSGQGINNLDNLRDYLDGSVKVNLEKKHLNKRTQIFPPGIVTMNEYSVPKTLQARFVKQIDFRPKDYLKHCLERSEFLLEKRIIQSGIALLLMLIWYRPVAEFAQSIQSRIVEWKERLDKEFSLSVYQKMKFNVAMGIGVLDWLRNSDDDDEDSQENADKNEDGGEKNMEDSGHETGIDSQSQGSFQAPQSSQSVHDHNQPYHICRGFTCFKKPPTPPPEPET
Data set [14] concerns the target Protein S100-A4 (Homo sapiens, UniProt P26447). Description: S100A4-myosin IIA binding inhibitor potency, dose response, biochemical, fluorescence polarization, cherry-picked hits (AID 687001). The class given is functional. (In general: Fluorescence polarisation rises when a labelled molecule tumbles more slowly, as on binding a larger partner.)
Data set [15] deals with Bifunctional protein GlmU (Mycobacterium tuberculosis, UniProt P9WMN3). Description: Inhibitors of Mycobacterial Glucosamine-1-phosphate acetyl transferase (GlmU). Secondary screen. Also on record: species or system Mycobacterium tuberculosis H37Rv.
The target in data set [16] is Nonstructural protein 1 (Influenza A virus, UniProt Q194T2). The class given is functional, Influenza A virus (A/California/07/2009(H1N1)).
Chain of Nonstructural protein 1 (Q194T2 whole entry): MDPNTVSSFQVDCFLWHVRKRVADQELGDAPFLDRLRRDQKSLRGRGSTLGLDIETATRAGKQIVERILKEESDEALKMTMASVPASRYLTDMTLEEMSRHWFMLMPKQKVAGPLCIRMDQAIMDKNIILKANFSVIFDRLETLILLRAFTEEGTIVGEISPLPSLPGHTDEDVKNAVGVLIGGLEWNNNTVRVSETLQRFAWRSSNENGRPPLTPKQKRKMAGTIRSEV
Data set [17] is described as follows: microbe, parasite or virus in culture. The format is functional. To be noted: Mycobacterium tuberculosis.
Data set [18] can be described thus: A High Throughput Confirmatory Assay used to Identify Novel Compounds that Inhibit Mycobacterium Tuberculosis in the absence of Glycerol. The class given is functional.
Data set [19] addresses Cytochrome P450 3A4 (Homo sapiens, UniProt P08684).
Data set [20] has as its system Vero. Description: host cell cytotoxicity of antiviral hits, dose response, cytotoxicity control for West Nile virus antiviral project, secondary assay (AID 1650). To be noted: Chlorocebus sabaeus. The class given is functional.
For data set [21], the target named is Ubiquitin carboxyl-terminal hydrolase BAP1 (Homo sapiens, UniProt Q92560). Description: BAP1 deubiquitinase inhibitors, dose response, biochemical (AID 714). The format is functional.
Data set [22] deals with Bcl-2-like protein 1 (Homo sapiens, UniProt Q07817). Description: BCL-XL inhibitors, dose response, selectivity assay for MCL1 inhibitor project, biochemical, fluorescence polarization, 1536-well (AID 2218).
Chain of Bcl-2-like protein 1 (Q07817 whole entry): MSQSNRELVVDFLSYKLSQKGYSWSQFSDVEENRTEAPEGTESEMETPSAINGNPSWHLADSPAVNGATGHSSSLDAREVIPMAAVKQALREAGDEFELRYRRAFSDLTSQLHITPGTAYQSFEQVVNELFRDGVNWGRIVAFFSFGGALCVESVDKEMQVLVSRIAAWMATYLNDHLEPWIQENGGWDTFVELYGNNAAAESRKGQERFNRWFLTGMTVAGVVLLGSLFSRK
Data set [23] addresses Induced myeloid leukemia cell differentiation protein Mcl-1 (Homo sapiens, UniProt Q07820). Description: MCL1-BIM BH3 interaction inhibitors, dose response, biochemical, fluorescence polarization, BIM-BH3 peptide, 1536-well (AID 2217).

The EC50 is the concentration at which the effect is half-maximal. A word on the IC50: it is the point on the concentration scale where inhibition reaches its midpoint. The term AC50 denotes the midpoint of the concentration-response curve, whichever way the signal moves.

Activity calls are given as the source filed them. Where only a bound is given, the exact number is not on record here.

Chain of NADPH oxidase 1 (Q9Y5S8 whole entry): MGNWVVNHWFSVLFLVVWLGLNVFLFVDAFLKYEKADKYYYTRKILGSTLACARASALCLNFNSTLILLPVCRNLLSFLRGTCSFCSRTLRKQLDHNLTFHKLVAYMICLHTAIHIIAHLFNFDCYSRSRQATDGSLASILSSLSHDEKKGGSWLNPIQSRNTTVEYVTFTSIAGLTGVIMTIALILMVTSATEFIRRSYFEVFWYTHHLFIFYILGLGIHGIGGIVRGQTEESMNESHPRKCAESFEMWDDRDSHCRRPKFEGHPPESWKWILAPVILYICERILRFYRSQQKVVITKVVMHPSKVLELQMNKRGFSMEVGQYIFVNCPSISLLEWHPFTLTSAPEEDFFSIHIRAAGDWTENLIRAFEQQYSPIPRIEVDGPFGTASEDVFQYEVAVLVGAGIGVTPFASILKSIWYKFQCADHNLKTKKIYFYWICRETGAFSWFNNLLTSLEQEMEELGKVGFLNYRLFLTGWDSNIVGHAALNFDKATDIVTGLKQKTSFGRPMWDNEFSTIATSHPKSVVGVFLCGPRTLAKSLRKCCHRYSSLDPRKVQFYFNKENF
Chain of Ion channel NompC (Q7T1G6 whole entry): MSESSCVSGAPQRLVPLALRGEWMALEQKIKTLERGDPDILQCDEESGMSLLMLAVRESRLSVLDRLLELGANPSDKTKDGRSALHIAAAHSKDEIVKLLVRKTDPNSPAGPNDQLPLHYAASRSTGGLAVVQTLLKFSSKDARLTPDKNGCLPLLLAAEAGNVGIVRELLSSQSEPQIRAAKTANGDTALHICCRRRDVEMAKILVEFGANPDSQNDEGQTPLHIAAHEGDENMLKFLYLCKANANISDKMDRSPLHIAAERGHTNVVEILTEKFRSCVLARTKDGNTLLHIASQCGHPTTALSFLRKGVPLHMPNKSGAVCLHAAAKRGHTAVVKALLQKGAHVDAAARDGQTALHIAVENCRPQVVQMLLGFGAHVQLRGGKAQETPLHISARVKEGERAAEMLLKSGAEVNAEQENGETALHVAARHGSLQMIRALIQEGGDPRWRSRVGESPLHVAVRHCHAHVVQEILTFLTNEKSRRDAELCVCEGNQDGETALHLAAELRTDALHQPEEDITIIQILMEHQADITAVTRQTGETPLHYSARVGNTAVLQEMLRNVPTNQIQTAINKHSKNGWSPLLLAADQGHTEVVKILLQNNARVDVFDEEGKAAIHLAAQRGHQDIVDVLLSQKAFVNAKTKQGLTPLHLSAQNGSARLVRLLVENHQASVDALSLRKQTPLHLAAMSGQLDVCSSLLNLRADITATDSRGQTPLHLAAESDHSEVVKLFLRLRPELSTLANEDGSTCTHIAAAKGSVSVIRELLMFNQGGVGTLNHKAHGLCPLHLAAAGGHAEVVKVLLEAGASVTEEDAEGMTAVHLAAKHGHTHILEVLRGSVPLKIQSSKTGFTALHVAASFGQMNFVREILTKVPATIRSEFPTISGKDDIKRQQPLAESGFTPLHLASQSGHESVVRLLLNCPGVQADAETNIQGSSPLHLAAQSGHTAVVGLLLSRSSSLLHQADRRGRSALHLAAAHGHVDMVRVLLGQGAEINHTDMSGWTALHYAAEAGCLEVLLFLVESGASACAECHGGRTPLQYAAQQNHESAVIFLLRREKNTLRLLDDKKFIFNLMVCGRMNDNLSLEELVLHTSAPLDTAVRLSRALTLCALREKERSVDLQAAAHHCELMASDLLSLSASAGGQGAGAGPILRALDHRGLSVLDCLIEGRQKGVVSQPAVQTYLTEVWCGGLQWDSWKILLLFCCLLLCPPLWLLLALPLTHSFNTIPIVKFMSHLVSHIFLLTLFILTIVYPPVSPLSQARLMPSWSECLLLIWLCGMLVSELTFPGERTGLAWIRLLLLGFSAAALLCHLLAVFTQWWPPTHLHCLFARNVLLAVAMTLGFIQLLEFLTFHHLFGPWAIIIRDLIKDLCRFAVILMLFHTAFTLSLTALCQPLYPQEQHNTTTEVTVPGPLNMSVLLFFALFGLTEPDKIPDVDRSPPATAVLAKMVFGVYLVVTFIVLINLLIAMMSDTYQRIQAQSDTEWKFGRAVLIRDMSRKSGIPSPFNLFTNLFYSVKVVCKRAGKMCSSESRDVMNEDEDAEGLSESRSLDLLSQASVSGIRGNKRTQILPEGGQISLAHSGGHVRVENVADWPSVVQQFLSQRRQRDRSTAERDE
Chain of Protein S100-A4 (P26447 whole entry): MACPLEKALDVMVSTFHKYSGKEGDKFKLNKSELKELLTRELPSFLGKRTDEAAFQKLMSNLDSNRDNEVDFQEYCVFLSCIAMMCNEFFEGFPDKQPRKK

As to `COc1ccc(Cl)cc1N(CC(=O)N1CCCCC1)S(C)(=O)=O`, the values for the 50% effective concentration (EC50) in [1] and in [2] were > 29.9 µM (not active) and 2.38 µM (active), respectively.
For `O=C(NCCCN1CCCCCC1)C1CC(=O)N(CCc2ccccc2)C1` (stereo not given), in data set [3], the IC50 was 10.2 µM (active). Moreover, the values for the AC50 in data set [4] and in data set [5] were 25.1 µM (inconclusive) and “inconclusive”, respectively.
`CCCCn1c(NCc2ccccc2NS(=O)(=O)c2ccc(C)cc2)nc2ccccc21`: the EC50 is > 60 µM (not active) in data set [6] and 2.21 µM (active) in data set [8]. For the same compound, in [7], the CC50 is > 40 µM (active).
`O=C(Oc1cccc(F)c1)c1sc2ccccc2c1Cl`: in data set [9], the IC50 is > 17 µM (not active).
With `Cc1ccc(-c2nnc(-c3ccc(NC(=O)c4ccco4)cc3)o2)cc1`, the EC50 in data set [10] is 46.1 µM (active); in [11] it was 28.4 µM (active); in [12], 10.4 µM (active).
With `O=C1NC(=O)N(c2ccccc2F)C(=O)/C1=C/c1ccc(Sc2nc3ccccc3[nH]2)o1`, the half-maximal inhibitory concentration (IC50) in [13] is 19.5 µM (active); in data set [15], 219 µM (active); in data set [16] it was > 100 µM (active). Besides, the AC50 in [14] is 1.28 µM (active).
On to `COc1ccccc1C1CC(c2c(O)nc3ccc(Cl)cc3c2-c2ccccc2)=NN1S(C)(=O)=O` (stereo not given), for which the CC50 was 25.2 µM (active) in data set [17] and 16 µM (active) in data set [20]. For the same compound, in data set [18], the concentration for half-maximal inhibition (IC50) is > 100 µM (active). Also, the AC50 in [19] was 39.8 µM (inconclusive); in [4], 7.08 µM (inconclusive).
Consider `COc1cccc(NC(=O)c2ccccc2-c2nc(-c3ccc(Cl)cc3)no2)c1`, for which the 50% inhibitory concentration (IC50) in data set [21] was 9 µM (active).
On to `COc1cccc(/C=N/NC(=S)Nc2cccc(C(=O)O)c2)c1O`, for which the 50% inhibitory concentration (IC50) is > 109 µM (not active) in data set [22], > 109 µM (not active) in data set [23] and 4.94 µM (active) in data set [16].

The values above are taken from ChEMBL document CHEMBL1201862, “PubChem BioAssay data set” (2004).
